Assay results published in US10407712B2, “Methods, compositions and kits for high throughput kinase activity screening using mass spectrometry and stable isotopes” (President and Fellows of Harvard College, priority 2008, dated 2019).

Tests used:
Src family kinase = experiment: Immunoblot of HEK293 cells treated with Src family kinase inhibitor; type: cell-based, human; settings: asynchronously growing HEK293 cells
Method: FIG. 7E is a photograph of immunoblot data of lysates following treatment of asynchronously growing HEK293 cells with Sic family kinase (SFK) specific inhibitor SU6656 in starved or serum-fed cells.
Lysates were resolved on 4 to 12% SDS/PAGE, transferred onto Potran membranes (Whatman), blocked with 3% milk in TBST (Tris Buffered Saline Tween-20), incubated with 1:1,000 dilution of primary antibody at 4° C. overnight, washed, and incubated with a 1:5,000 dilution of second antibody (HRP-conjugated) with 3% milk in TBST for 1 h at room temperature. Bands were visualized with ECL solution (Roux et al. 2004 Proc Natl Acad Sci USA 101: 13489-[…]).
To further investigate whether this is a Src-dependent site in vivo, asynchronously growing HEK293 cells were treated with the specific Src family kinase inhibitor, Su6656. […] Further, MCF10A cells expressing v-Src:estrogen receptor (Reginato et al. 2005 Mol Cell Biol 25: 4591-4601) were treated with 1 μM 4-hydroxytamoxifen (4-HT) to activate v-Src as a function of time (FIG. 7F).

EGFR = biological target: T1, EGFR (Homo sapiens, UniProt P00533); experiment: In vitro kinase reaction of H5 peptide with purified EGFR; type: biochemical
T1 construct: epidermal growth factor (EGF) receptor (EGFR, 672-1210); purchased Cell Signaling Technology (Danvers, Mass.)
From the text: (§1) FIG. 7D is a line graph showing in vitro phosphorylation of peptide H5 (SEQ ID NO: 87) using each of purified Src and EGFR.
(§2) Purified human active kinases of Akt1 (full length), extracellular signal-regulated kinase 1 (ERK1, 1-379), mitogen-activated protein kinase kinase 1 (MEK1, 1-393), 90 kDa ribosomal S6 kinases 1 (RSK1, 1-735), cAMP-dependent protein kinase (PKA) catalytic subunit-α (PKA Cα, 1-351), protein kinase Cα (PKCα, full length), epidermal growth factor (EGF) receptor (EGFR, 672-1210), platelet-derived growth factor (PDGF) receptor α (PDGFRα, 550-1090), vascular endothelial growth factor (VEGF) receptor 1 (VEGFR1 784-1338), Src (full length), casein kinase 2 (CK2, full length), Aurora A (1-403), AMP-activated protein kinase α1β1γ1 (AMPK α1β1γ1, full length), glycogen synthase kinase-3α (GSK-3α, 1-483) and MAP/microtubule affinity-regulating kinase 1 (MARK 1, full length) were obtained from Cell Signaling Technology (Danvers, Mass.). Cdc2/cyclin B1 (full length) and insulin-like growth factor (IGF)-I receptor (IGFIR, 959-1367) were obtained from Upstate (Temecula, Calif.).
(§3) In order to identify the kinase that phosphorylates p55 (Tyr-199) lysates of serum-starved HEK293 cells were used for insulin, IGF and EGF stimulation. […]

HeLa cell lysates = experiment: KAYAK in vitro kinase assay, lysates of asynchronous, G1/S- or G2/M-arrested HeLa cells; type: biochemical, human
Method: For cell cycle examples, HeLa cells were synchronized by double thymidine block for G1/S-arrest and by 0.2 μg/ml nocodazole for G2/M-arrest as described (Dephoure et al. 2008 Proc Natl Acad Sci USA 105: 10762-10767). Synchronization was confirmed by flow cytometry.
For cell lysis, the media were removed, and cells were washed with ice-cold phosphate-buffered saline (PBS) and lysed with ice-cold lysis buffer (10 mM K2HPO4 pH 7.5, 1 mM EDTA, 10 mM MgCl2, 50 mM β-glycerophosphate, 5 mM EGTA, 0.5% Nonidet P-40, 0.1% Brij 35, 0.1% deoxycholic acid, 1mM sodium orthovanadate, 1mM phenylmethyl-sulfonyl fluoride, 5 μg/ml leupeptin and 5 μg/ml pepstatin A). Lysates were centrifuged at 10,000 rpm for 10 min to remove cell debris, and clear supernatant was used for immunoblotting and in vitro kinase assays. Protein concentration was determined by Bradford assay (Biorad, Hercules, Calif.).
Peptides were synthesized, purified and quantified as described in Yu et al. 2009 Proc Natl Acad Sci USA 106: 11606-11611, hereby incorporated by reference herein in its entirety. Each substrate peptide (250 pmol) was mixed to a final concentration of 5 μM in the 50 μL reaction mixture. Alternatively, reactions were performed using 6 μg cell lysate aliquotes mixed to a final volume of 20 μl. Cell lysate or other kinase source was added to the substrate mixture in 25 mM Tris-Cl, pH 7.5, containing 5 mM ATP, 7.5 mM MgCl2, 0.2 mM EGTA, 7.5 mM β-glycerophosphate, 0.1 mM Na3VO4, and 0.1 mM DTT. The reaction was incubated at 25° C. for 60 min and then terminated by the addition of 100 μl of 1% trifluoroacetic acid (TFA) containing a known amount of an internal standard (typically 20 pmol). Alternatively, the reaction was incubated at 20° C. for 45 min before termination with TFA.
Forty-five individual in vitro kinase reaction mixtures were combined and desalted by using Sep-Pak C18 cartridge (Waters, Milford, Mass.). Phosphopeptides were enriched by immobilized metal ion chromatography (IMAC) with 20 μl of beads (Phos-Select iron affinity gel; Sigma, St. Louis, Mo.) and subsequently desalted by using Empore C18 solid phase extraction disks (3M, St. Paul, Minn.) as described previously.
Quantitation of the target peptide-internal standard ratios was performed by first constructing the extracted ion chromatogram for the most abundant charge state for each peptide using a ±10 ppm window. Chromatograms were integrated using Qual/Quan browser (Xcalibur 2.0.5, Thermo Fisher, San Jose, Calif.). Since the phosphorylated peptides generated from the in vitro kinase reactions were chemically identical to the internal standards, they were assumed to have the same ionization efficiency. Therefore, the amount of each phosphorylated peptide was calculated by direct ratio to the internal standard level.
To test substrate suitability in a multiplexed assay, the phosphorylation activities were measured using […] of each substrate peptide, 6 μg lysate, and 5 mM ATP in a plate format. Reactions proceeded for 60 minutes followed by acidification and the addition of isotope-labeled reference peptides. After pooling 45 samples, phosphopeptide enrichment was followed by liquid-chromatography (LC) separation and on-line peptide detection by high-resolution mass spectrometry.
In order to examine target peptides with cell-cycle-dependent phosphorylation, kinase activities in asynchronously growing HeLa cells were profiled and the profiles were compared with those of cells synchronized in G1/S and G2/M phase using a double-thymidine block and nocodazole arrest, respectively (FIG. 3B).

Src = biological target: T2, Src (Homo sapiens, UniProt P12931); experiment: In vitro kinase reaction of H5 peptide with purified Src; type: biochemical
T2 construct: Src (full length); purchased Cell Signaling Technology (Danvers, Mass.)
From the text: as §1, §2, §3

Molecule	level of phospho-Src (Tyr-416) (Src family kinase)	level of phospho-p55 (Tyr-199) (Src family kinase)	phosphorylation by EGFR (EGFR)	increase in phosphorylation in G2/M (HeLa cell lysates; G2/M (nocodazole-arrested) HeLa lysate vs asynchronously growing cells) [fold]	G2/M: changed phosphorylation (HeLa cell lysates; G2/M phase compared to asynchronously growing HeLa cells)	phosphorylation by Src (Src)
CN(C)S(=O)(=O)c1ccc2c(c1)/C(=C/c1cc3c([nH]1)CCCC3)C(=O)N2 [Su6656, SU6656]	diminished	diminished	–	–	–	–
EYDRLYEEYTPFR (The sequence was designed and synthesized) [H5]	–	–	not	13	++ (A change of more than +4 and −4 fold is indicated by “++” and “−−”, respectively.)	robust phosphorylation
